# Experimental data reported in EP4692090A1 (Shanghai Fosun Pharmaceutical (Group) Co., Ltd., priority 2023, dated 2024).
# Where two headings read alike, the source gives them in different places.
# Tested on: LoVo cells
# Assay: LoVo cell proliferation assay (CellTiter-Glo)
# Type: cell-based
# Settings: LoVo cells, 2,000 cells per well, 5 days incubation, CellTiter-Glo, maximum concentration 10 µM, 9 concentrations, read-out: LoVo IC50
# Method: Test Example 2: LoVo cell proliferation assay
# LoVo (ATCC, #CRL-229) cells in logarithmic growth phase were digested, counted, and plated into 96-well cell culture plates at 2,000 cells per well. The plates containing cells were incubated overnight at 37°C in a 5% CO2 incubator, and then test compounds with 3-fold gradient dilutions (maximum concentration: 10 µM, 9 concentrations) were added. DMSO was used as a blank control. After the LoVo cells containing the compounds or DMSO were incubated for an additional 5 days, an equal volume of CellTiter-Glo reagent (Promega, #7573) was added. After incubation at room temperature for 30 minutes, chemiluminescence was read using an Envision 2105 (PerkinElmer). The cell proliferation inhibition rate (%) for wells treated with each concentration of the compounds was calculated using the following formula. Then, with compound concentration as the horizontal axis and cell proliferation inhibition rate (%) as the vertical axis, GraphPad software was used to plot the data and determine the IC50 values of the test compounds. The results are shown in Table 2, wherein the IC50 ranges are defined as follows: A: ≤ 100 nM; 1000 nM ≥ B > 100 nM; C > 1000 nM.
# Cell proliferation inhibition (%) = (1 - luminescence value of compound-treated group / average luminescence value of DMSO blank control group) × 100. Table 2. Inhibitory effect of compounds on LoVo growth
Structure (SMILES),IC50 [nM],"IC50 (Homo sapiens, LoVo, 120 h) [nM]"
"CC1c2cc(N3CCOC[C@H]3C)nc3c2c(nn3-c2cc[nH]n2)CCN1CC1COC1 (single isomer, unassigned) [Compound 44B]",100 to 1000,
"CC1c2cc(N3CCOC[C@H]3C)nc3c2c(nn3-c2cc[nH]n2)CCN1CC(F)F (single isomer, unassigned) [Compound 45A]",,100 to 1000
"CC1c2cc(N3CCOC[C@H]3C)nc3c2c(nn3-c2cc[nH]n2)CCN1CC(F)F (single isomer, unassigned) [Compound 45B]",100 to 1000,
"CC1c2cc(N3CCOC[C@H]3C)nc3c2c(nn3-c2cc[nH]n2)CCN1S(C)(=N)=O (single isomer, unassigned) [Compound 46A]",,100 to 1000
"CC1c2cc(N3CCOC[C@H]3C)nc3c2c(nn3-c2cc[nH]n2)CCN1S(C)(=N)=O (single isomer, unassigned) [Compound 46B]",100 to 1000,
"CC1c2cc(N3CCOC[C@H]3C)nc3c2c(nn3-c2cc[nH]n2)CCN1S(C)(=N)=O (single isomer, unassigned) [Compound 46D]",100 to 1000,
"CC1c2cc(N3CCOC[C@H]3C)nc3c(-c4cc[nH]n4)nn(c23)CCN1C (single isomer, unassigned) [Compound 59A]",,100 to 1000
"CC1c2cc(N3CCOC[C@H]3C)nc3c(-c4cc[nH]n4)nn(c23)CCN1C (single isomer, unassigned) [Compound 59B]",100 to 1000,
"C[C@@H]1COCCN1c1cc2c3c(n1)c(-c1cc[nH]n1)nn3CCC2(O)C1CCOCC1 (single isomer, unassigned) [Compound 73A]",,> 1000
"C[C@@H]1COCCN1c1cc2c3c(n1)c(-c1cc[nH]n1)nn3CCC2(O)C1CCOCC1 (single isomer, unassigned) [Compound 73B]",> 1000,
"C[C@@H]1COCCN1c1cc2c3c(n1)c(-c1cc[nH]n1)nn3CCC2(O)c1cnn(C)c1 (single isomer, unassigned) [Compound 74A]",,> 1000
"C[C@@H]1COCCN1c1cc2c3c(n1)c(-c1cc[nH]n1)nn3CCC2(O)c1cnn(C)c1 (single isomer, unassigned) [Compound 74B]",> 1000,
"CC(C)C1c2cc(N3CCOC[C@H]3C)nc3c2c(nn3-c2cc[nH]n2)CCN1S(C)(=O)=O (single isomer, unassigned) [Compound 140A]",,< 100
"CC(C)C1c2cc(N3CCOC[C@H]3C)nc3c2c(nn3-c2cc[nH]n2)CCN1S(C)(=O)=O (single isomer, unassigned) [Compound 140B]",100 to 1000,
"C[C@@H]1COCCN1c1cc2c3c(nn(-c4cc[nH]n4)c3n1)CCN(S(=O)(=O)C(F)(F)F)C2 [Compound 25, (R)-4-(2-(1H-pyrazol-3-yl)-7-((trifluoromethyl)sulfonyl)-6,7,8,9-tetrahydro-2H-1,2,3,7-tetraazabenzo[cd]azulen-4-yl)-3-methylmorpholine]",,< 100
"C[C@@H]1COCCN1c1cc2c3c(nn(-c4cc[nH]n4)c3n1)CCN(S(=O)(=O)C1COC1)C2 [Compound 26, (R)-3-methyl-4-(7-(oxetan-3-ylsulfonyl)-2-(1H-pyrazol-3-yl)-6,7,8,9-tetrahydro-2H-1,2,3,7-tetraazabenzo[cd]azulen-4-yl)morpholine]",,100 to 1000
"CC1c2cc(N3CCOC[C@H]3C)nc3c2c(nn3-c2cc[nH]n2)CCN1c1cnn(C)c1 (stereo partly drawn) [Compound 43, (3R)-3-methyl-4-(6-methyl-7-(1-methyl-1H-pyrazol-4-yl)-2-(1H-pyrazol-3-yl)-6,7,8,9-tetrahydro-2H-1,2,3,7-tetraazabenzo[cd]azulen-4-yl)morpholine]",,100 to 1000
"C[C@@H]1COCCN1c1cc2c3c(n1)c(-c1cc[nH]n1)nn3CCNC2 [Compound 51, (R)-4-(2-(1H-pyrazol-3-yl)-6,7,8,9-tetrahydro-1,3,7,9a-tetraazabenzo[cd]azulen-4-yl)-3-methylmorpholine]",,100 to 1000
"CC1c2cc(N3CCOC[C@H]3C)nc3c(-c4cc[nH]n4)nn(c23)CCN1S(C)(=O)=O (stereo partly drawn) [Compound 60, (3R)-3-methyl-4-(6-methyl-7-(methylsulfonyl)-2-(1H-pyrazol-3-yl)-6,7,8,9-tetrahydro-1,3,7,9a-tetraazabenzo[cd]azulen-4-yl)morpholine]",,100 to 1000
